Patent publication US20050032724A1 (priority 2001, published 2005)
“Also recorded” adds a separate entry of the source. Read-outs that look alike come from different tables or passages of the source.

Assays:
[1] = test system: human epithelial cervical cancer cell line KB 3-1; assay type: cell-based
Description: (§1) The human epithelial cervical cancer cell line KB 3-1 with two subclones (KB 3-1 (MDR1^+++) and KB 3-1 (MDR1^+++, CYP3A5)) and the bladder cancer cell line RT112, also with subclone (RT112 (MDR1^+, UGT1A1)), were cultured in Dulbecco's Modified Eagle Medium (DMEM) including 3.7 g/l NaHCO3, 4.5 g/l D-Glucose, 1.028 g/l N-Acetyl-L-Alanyl-L-glutamine and supplemented with 10% fetal bovine, 1 mM Na-pyruvate and 1% non-essential amino acids. The human colon cancer cell line LS174T was cultured in Dulbecco's modified Eagle medium containing L-glutamine, pyridoxine hydrochloride and 25 mM Hepes buffer without phenol red, supplemented with 10% fetal bovine, 1 mM Na-pyruvate and 1% non-essential amino acids. All cells were incubated at 37° C. with 5% CO2 in a humidified atmosphere.
(§2) Lower concentrated dilutions were prepared in PBS and cell culture medium.
(§3) Cells were seeded in 96-well culture plates 24 h prior to treatment. With respect to differential growth rates KB 3-1 and RT112 cells were seeded at 700 cells/well, RT112 (MDR1^+, UGT1A1) at 1000 cells/well and KB 3-1 (MDR1^+++) and KB 3-1 (MDR1^+++, CYP3A5) at 1200 cells/well. LS174T were seeded at 1.0×10^4 cells/well. […] Four well were treated with the same drug dilution. Cells were incubated for 3 days at 37° C. in a humidified 5% CO2 atmosphere.
(§4) A commercially available MTS assay system (Promega, Madison, USA) was used to determine growth inhibition and cell death according to the instructions of the manufacturer. Three days after adding the drugs, 20 μl of the combined MTS/PMS solution was added to each well of the 96-well culture plate. The plate was incubated for at least 45 min at 37° C. in a humidified 5% CO2 atmosphere and the absorbance at 492 nm was measured. The absorbance values of untreated control cells on each plate were set as 100% growth and used to calculate the remaining growth of drug treated cells. Untreated cells on the culture plates served as controls for unaffected growth and survival.
(§5) The drug concentration effecting a 50% inhibition of cell growth was defined as the IC50.

[2] = test system: human colon cancer cell line LS174T; assay: MTS cytotoxicity assay, growth inhibition, LS174T; assay type: cell-based; settings: for IC50 (50% inhibition of cell growth): LS174T, 3 days treatment
Description: as §1, §2, §3, §4, §5

[3] = test system: KB 3-1 (MDR1^+++) cells
Description: as §1, §2, §3, §4, §5

[4] = test system: RT112 (MDR1, UGT1A1) cells; settings: for IC50 (50% inhibition of cell growth): RT112 (MDR1, UGT1A1), 3 days treatment
Description: as §1, §2, §3, §4, §5

[5] = test system: KB 3-1 (MDR1^+++, CYP3A5) cells
Description: as §1, §2, §3, §4, §5

[6] = test system: bladder cancer cell line RT112; assay: MTS cytotoxicity assay, growth inhibition, RT112; assay type: cell-based, human; settings: RT112, 3 days treatment
Description: as §1, §2
Cells were seeded in 96-well culture plates 24 h prior to treatment. […]
as §4, with “Three days after adding the drugs, 20 μl of the combined MTS/PMS solution was added to each well of the 96-well culture plate.” left out, “Untreated cells on the culture plates served as controls for unaffected growth and survival.” left out

[7] = Clinical study of peak plasma digoxin levels at steady state by MDR1 3435C>T genotype; assay type: in vivo, human; settings: 14 healthy volunteers, oral digoxin, p=0.006 Mann Whitney U test
From the text: Furthermore, the influence of the MDR1 genotype on intestinal uptake-related pharmacokinetics of digoxin was investigated in a clinical study at the University Medical Center, Charite in Berlin. Maximal digoxin blood levels (Cmax) at steady state were correlated with the MDR1 3435C>T genotype 14 healthy volunteers after oral application of digoxin. […] (p=0.006, Mann Whitney U test) and reflects the impact of this polymorphism on digoxin pharmacokinetics.

[8] = test system: MRP1 mRNA; assay: MRP1 mRNA content in duodenal biopsies before and after rifampicin; assay type: in vivo, human; settings: healthy volunteers
[9] = within the first 60 days of treatment, colorectal cancer trials; cited from earlier work
[10] = irinotecan therapy, dose-limiting toxicity; cited from earlier work
[11] = mass balance studies; cited from earlier work

COc1ccc(CCN(C)CCC[C@](C#N)(c2ccc(OC)c(OC)c2)C(C)C)cc1OC [R-Verapamil]
effect of addition of R-Verapamil on CPT-11 and SN-38 sensitivity [1]: only marginal effects

CCc1c2c(nc3ccc(O)cc13)-c1cc3c(c(=O)n1C2)COC(=O)[C@]3(O)CC [SN-38, 7-ethyl-10-hydroxycamptothecin]
IC50 (50% inhibition of cell growth) [2]: 0.005 µg/mL | efficacy relative to CPT-11 (growth inhibition and cell death) ([2]; stated for LS174T, RT112 and KB 3-1 together): 1000 fold | IC50 (50% inhibition of cell growth) [3]: 0.2 µg/mL | higher sensitivity after inhibition of MDR1 transport function with R-Verapamil [3]: 10 fold | increase of IC50 relative to KB 3-1 [3]: at least 8 times | sensitivity with R-Verapamil [3]: as sensitive as KB 3-1 cells | higher resistance of RT112 (MDR1, UGT1A1) relative to RT112 [4]: 19 fold | IC50 (50% inhibition of cell growth) [4]: 0.075 µg/mL | IC50 (50% inhibition of cell growth) [5]: > 0.2 µg/mL | IC50 (50% inhibition of cell growth) [1]: 0.025 µg/mL | IC50 with R-Verapamil [1]: 15 ng/m | IC50 (50% inhibition of cell growth) [6]: 0.004 µg/mL

C[C@H]1O[C@@H](O[C@H]2[C@@H](O)C[C@H](O[C@H]3[C@@H](O)C[C@H](O[C@H]4CC[C@@]5(C)[C@H](CC[C@@H]6[C@@H]5C[C@@H](O)[C@]5(C)[C@@H](C7=CC(=O)OC7)CC[C@]65O)C4)O[C@@H]3C)O[C@@H]2C)C[C@H](O)[C@@H]1O [digoxin]
Maximal digoxin blood levels (Cmax) at steady state, homozygous T vs C/C MDR1 3435C>T genotype [7]: statistically significantly different; also recorded: statistically significantly lower

CO[C@H]1/C=C/O[C@@]2(C)Oc3c(C)c(O)c4c(O)c(c(/C=N/N5CCN(C)CC5)c(O)c4c3C2=O)NC(=O)/C(C)=C\C=C\[C@H](C)[C@H](O)[C@@H](C)[C@@H](O)[C@@H](C)[C@H](OC(C)=O)[C@@H]1C [rifampicin]
effect of rifampicin treatment on MRP1 mRNA expression [8]: no effect

irinotecan [CPT-11]
increase of irinotecan toxicity-related mortality [9]: ~3 times | IC50 (50% inhibition of cell growth) [2]: 1.5 µg/mL | IC50 with R-Verapamil ([3]; KB 3-1 (MDR1+++), 3 days, with R-Verapamil 10 μg/ml): 10 µg/mL | IC50 (50% inhibition of cell growth) ([3]; KB 3-1 (MDR1+++), 3 days, without R-Verapamil): 85 µg/mL | IC50 of RT112 (MDR1, UGT1A1) compared to RT112 cells ([4]; RT112 (MDR1, UGT1A1) vs RT112, in words): two-times higher | IC50 (50% inhibition of cell growth) [4]: 4 µg/mL | diarrhea, occurrence in patients [10]: up to 88% | IC50 with R-Verapamil ([1]; KB 3-1, 3 days, with R-Verapamil 10 μg/ml): 4.5 µg/mL | IC50 (50% inhibition of cell growth) ([1]; KB 3-1, 3 days, without R-Verapamil): 5 µg/mL | IC50 (50% inhibition of cell growth) [6]: 2.5 µg/mL | total dose excreted in the feces [11]: 64%
